The assay has as its system HCV replication. Put plainly: HCV replicon assay (luciferase), ET (Huh-lucubineo-ET) cell line. In kind it is cell-based. The settings on record: Hepatitis C virus; tested at 10 μM; ET (Huh-lucubineo-ET) replicon cells; luciferase activity 48-72 hours; relative to no compound control. As for the experimental part:
A cell line, ET (Huh-lucubineo-ET) was used for screening of compounds of the present invention for inhibiting HCV replication. The ET cell line was stably transfected with RNA transcripts harboring a I389luc-ubi-neo/NS3-3′/ET; replicon with firefly luciferase-ubiquitin-neomycin phosphotransferase fusion protein and EMCV-IRES driven NS3-5B polyprotein containing the cell culture adaptive mutations (E1202G; T1280I; K1846T) (Krieger at al, 2001 and unpublished). The ET cells were grown in DMEM (Dulbeco's Modified Eagle's Medium), supplemented with 10% fetal calf serum, 2 mM Glutamine, Penicillin (100 IU/mL)/Streptomycin (100 μg/mL), 1× nonessential amino acids, and 250 μg/mL G418 (“Geneticin”). They were all available through Life Technologies (Bethesda, Md.). The cells were plated at 0.5-1.0×10^4 cells/well in the 96 well plates and incubated for 24 hrs before adding testing compounds. Then the compounds were added to the cells to achieve a final concentration of 0.1 nM to 50 μM and a final DMSO concentration of 0.5%. Luciferase activity were measured 48-72 hours later by adding a lysis buffer and the substrate (Catalog number Glo-lysis buffer E2661 and Bright-Glo luciferase system E2620 Promega, Madison, Wis.). Cells should not be too confluent during the assay. Percent inhibition of replication was plotted relative to no compound control. Under the same condition, cytotoxicity of the compounds was determined using cell proliferation reagent, WST-1 (Roche, Germany). The compounds showing antiviral activities, but no significant cytotoxicities were chosen to determine EC50 and TC50. For these determinations, a 10 point 2-fold serial dilution for each compound was used, which spans a concentration range of 1000 fold. EC50 and similarly TC50 values were calculated by fitting % inhibition at each concentration to the following equation:
% inhibition=100%/[(IC50/[I])^b+1]
where b is Hill's coefficient.
In some preferred embodiments compounds of Formula I will have a % inhibition of at least 20% when tested at 10 μM. In other embodiments the compounds of Formula I will have a % inhibition of at least 50% when tested at 10 μM.
One may read the inhibition as the share of the control response that was lost under treatment. A low value points to a response near the control. Molecule `N#Cc1ccc(-c2ccc3nc([C@@H]4CCCN4C(=O)OCc4ccccc4)[nH]c3c2)cc1` [Compound 4049, (S)-2-[6-(4-Cyano-phenyl)-1H-benzoimidazol-2-yl]-pyrrolidine-1-carboxylic acid benzyl ester] gave an inhibition at 10 µM of 20%.
The same measure for `Cc1nc2cc(-c3ccc4nc([C@@H]5CCCN5C(=O)OCc5ccccc5)[nH]c4c3)ccc2s1` [Compound 4051, (S)-2-[6-(2-Methyl-benzothiazol-5-yl)-1H-benzoimidazol-2-yl]-pyrrolidine-1-carboxylic acid benzyl ester]: 32.8%; for `O=C(OCc1ccccc1)N1CCC[C@H]1c1nc2ccc(-c3cccc(O)c3)cc2[nH]1` [Compound 4054, (S)-2-[6-(3-Hydroxy-phenyl)-1H-benzoimidazol-2-yl]-pyrrolidine-1-carboxylic acid benzyl ester]: 99.3%.
Molecule `O=C(NC1CC1)c1ccc(-c2csc(NC[C@@H]3CCCN3C(=O)OCc3ccccc3)n2)cc1` [Compound 4055, (S)-2-{[4-(4-Cyclopropylcarbamoyl-phenyl)-thiazol-2-ylamino]-methyl}-pyrrolidine-1-carboxylic acid benzyl ester] gave an inhibition at 10 µM of 44%.
The same measure for `O=C(NCc1cccc(-c2ccc3nc([C@@H]4CCCN4C(=O)OCc4ccccc4)[nH]c3c2)c1)C1CC1` [Compound 4057, (S)-2-(6-{3-[(Cyclopropanecarbonyl-amino)-methyl]-phenyl}-1H-benzoimidazol-2-yl)-pyrrolidine-1-carboxylic acid benzyl ester]: 99.4%; for `O=C(NC1CC1)c1ccc(-c2cccc(C#C[C@@H]3CCCN3C(=O)OCc3ccccc3)c2)cc1` [Compound 4060, (S)-2-(4′-Cyclopropylcarbamoyl-biphenyl-3-ylethynyl)-pyrrolidine-1-carboxylic acid benzyl ester]: 48.4%.

These data come from patent US20080193411A1, “Anti-viral Compounds” (Genelabs Technologies, Inc., priority 2006, published 2008).
